From patent US20220143212A1, “MAMC-MEDIATED BIOMIMETIC NANOPARTICLES” (UNIVERSIDAD DE GRANADA, priority 2018, published 2022)

Columns and labels:
[1] = tested on: 4T1 cells; experiment: Detection of ROS production (CellROX Green, confocal); assay type: cell-based, murine; conditions: 100 μM, positive control
Procedure: To measure the potential oxidative stress in living cells, as a consequence of the presence of the BMNPs, CelIROX® Green Reagent (ThermoFisher) was used following the protocol recommended by the manufacturer. Briefly, cells (approximately 20×10^3 4T1/well) were seeded on glass coverslips in 24-well plates. After their exposure to different concentrations (0.1, 1, 10, 100 μg/mL), in the presence and absence of a gradient magnetic field, of BMNPs for 4 hours, the cells were washed with PBS and CelIROX® Green Reagent was added to a final concentration of 5 μM in 300 μl of DMEM medium without serum. Then, the plate was incubated in the dark at 37° C. for 30 minutes. Menadione (100 μM) was used as a positive control. After the incubation time, the coverslips were washed with PBS pH 7.2, fixed with 4% paraformaldehyde in PBS, washed again and permeabilized with 0.1% Triton-X100 for 10 minutes. Finally, the coverslips were stained and mounted on specimen slides (Biosigma). […] Therefore, the emission of green fluorescence (at 485/520 nm) is stable and is produced after the DNA binding, and therefore its signal is mainly located in the nucleus and in the mitochondria. Fluorescence was detected using a Spectral Confocal Leica TCS SP2 AOBS microscope. […]

[2] = tested on: 4T1 cells; experiment: Confocal analysis of DOXO internalization; assay type: cell-based, murine; conditions: soluble drug, positive control
Procedure: Cells (approximately 20×10^3 4T1/well) were seeded on glass coverslips in 24-well plates and, after 24 h, soluble DOXO (as a positive control) or DOXO-BMNP suspensions were added. After incubation at 37° C. for different periods of time (30 seconds, 5 and 30 minutes) in the absence (−GMF) and in the presence (+GMF) of a gradient magnetic field, coverslips were washed with fresh PBS pH 7.2 and fixed with paraformaldehyde (2% wt in PBS). To minimize unspecific interactions and permeabilize cells, coverslips were washed with Tris-Buffered Saline (TBS) containing 5% Bovine Serum Albumin (BSA), 0.1% Triton X-100 and 5% got serum and then stained. In particular cytoskeletal actin microfilaments were stained with FITC-phalloidin (Sigma-Aldrich, excitation at 488 nm; emission at 500-535 nm) and nuclei were stained with TO-PRO-3 (1/70, Life Technologies; excitation at 633 nm; emission at 650-750 nm). DOXO was detected after excitation at 476 nm and emission at 575-630 nm. Fluorescence was detected using a Leica TCS SP2 AOBS Spectral Confocal Scanner microscope. Images were taken at 400× magnification. ImageJ software was used for analysis.

[3] = tested on: 4T1 tumors; experiment: In vivo magnetic targeting and antitumor activity; parameters: species or system BALB/c mice; conditions: day 15, 2 mg/kg DOXO i.v. x5
Source text: Female BALB/c mice were inoculated with 10^5 4T1 cells into a mammary gland fat pad. […] The 6 groups were intravenously injected and treated as follows: i) PBS (control), ii-iii) DOXO-BMNPs +/−gradient magnetic field, iv-v) BMNPs +/−gradient magnetic field, and vi) soluble DOXO. […] The magnetic field was applied by attaching a 10 mm in diameter×3 mm thick N42 neodymium magnet (1.8 kg pull, Magnet Expert Ltd) with 3MTM Vetbond™ tissue adhesive on the tumor site and keeping it attached for 1 hour after the injection. This neodymium magnet, with a magnetic anisotropy normal to the plane and a saturation magnetization of 800 emu/cc, could generate a direct current (d.c.) magnetic field of the order of 100 Oe a few millimeters from the surface. Therefore, the effect of the magnet is equivalent to the application of a local 100-Oe external d.c. magnetic field immediately after the administration of the nanoparticles. Throughout the study, body weight and tumor volumes (measured with caliper) were recorded every 3-4 days. Three days after the last injections (day 18), mice were euthanized, their weights, as well as, tumor weights were recorded and, then, tumors, hearts, livers, spleens, brains, lungs, and kidneys were collected for histology. Histological sections of the tumors were prepared for hematoxylin-eosin and Prussian blue staining to analyze particle biodistribution.

`CC1=CC(=O)c2ccccc2C1=O` [Menadione] was tested, and the ROS release [1] was “clearly visible”.
In the case of `COc1cccc2c1C(=O)c1c(O)c3c(c(O)c1C2=O)C[C@@](O)(C(=O)CO)C[C@@H]3O[C@H]1C[C@H](N)[C@H](O)[C@H](C)O1` [soluble DOXO, doxorubicin], the “internalization of DOXO in cell nuclei (confocal)” value [2] is reported as “detected only after 5 min” and the tumor volume [3] is reported as “significantly reduced”.
